Laboratory results as given in patent publication US9000185B2, “Cycloalkyl ether compounds and their use as BACE inhibitors” (AstraZeneca AB, priority 2012, dated 2015).

What was measured:
[1] = target: T1, human β-Secretase (sBACE-Fc) (Homo sapiens (Human), UniProt P56817); assay: Diluted TR-FRET assay; assay type: biochemical; conditions: diluted TR-FRET assay: 50 times less enzyme, 6.5 h reaction time at r.t.; read-out: IC50 in TR-FRET assay (IC50 from the diluted FRET assay)
Procedure: (§1) The cDNA for the soluble part of the human β-Secretase (AA 1-AA 460) was cloned using the ASP2-Fc10-1-IRES-GFP-neoK mammalian expression vector. The gene was fused to the Fc domain of IgG1 (affinity tag) and stably cloned into HEK 293 cells.
(§2) The enzyme (truncated form) was diluted to 6 μg/mL (stock 1.3 mg/mL) and the TruPoint BACE1 Substrate to 200 nM (stock 120 μM) in reaction buffer (NaAcetate, chaps, triton x-100, EDTA pH4.5). Enzyme and compound in dimethylsulphoxide (final DMSO concentration 5%) was mixed and pre-incubated for 10 minutes at RT. Substrate was then added and the reaction was incubated for 15 minutes at RT. The reaction was stopped with the addition of 0.35 vol Stop solution (NaAcetate, pH 9). The fluorescence of the product was measured on a Victor II plate reader with excitation wavelengths of 340-485 nm and emission wavelengths of 590-615 nm. The final concentration of the enzyme was 2.7 μg/ml; the final concentration of substrate was 100 nM (Km of ˜250 nM). The dimethylsulphoxide control, instead of test compound, defined the 100% activity level and 0% activity was defined by wells lacking enzyme (replaced with reaction buffer) or by a saturating dose of a known inhibitor, 2-amino-6-[3-β-methoxyphenyl)phenyl]-3,6-dimethyl-5H-pyrimidin-4-one.
Compounds with a high affinity were further tested in a diluted TR-FRET assay, conditions as described above for the TR-FRET assay, but with 50 times less enzyme and a 6.5 h long reaction time at r.t. in the dark.

[2] = tested on: sAPPβ release in SH-SY5Y cells; assay: sAPPβ release assay; assay type: cell-based; conditions: 17 h incubation
Procedure: SH-SY5Y cells were cultured in DMEM/F-12 with Glutamax, 10% FCS and 1% non-essential amino acids and cryopreserved and stored at −140° C. at a concentration of 7.5−9.5×10^6 cells per vial. […] The cell plates were then incubated for 7-24 h at 37° C., 5% CO2. The cell medium was removed, followed by addition of 30 μL compound diluted in DMEM/F-12 with Glutamax, 10% FCS, 1% non-essential amino acids and 1% PeSt to a final conc. of 1% DMSO. The compounds were incubated with the cells for 17 h (overnight) at 37° C., 5% CO2. Meso Scale Discovery (MSD) plates were used for the detection of sAPPβ release. MSD sAPPβ plates were blocked in 1% BSA in Tris wash buffer (40 μL/well) for 1 h on shake at r.t. and washed 1 time in Tris wash buffer (40 μL/well). 20 μL of medium was transferred to the pre-blocked and washed MSD sAPPβ microplates, and the cell plates were further used in an ATP assay to measure cytotoxicity. The MSD plates were incubated with shaking at r.t. for 2 h and the media discarded. 10 μL detection antibody was added (1 nM) per well followed by incubation with shaking at r.t. for 2 h and then discarded. 40 μL Read Buffer was added per well and the plates were read in a SECTOR Imager.

[3] = target: T1, human β-Secretase (sBACE-Fc); assay: TR-FRET assay; assay type: biochemical; conditions: standard TR-FRET assay, 15 minutes reaction at RT
Procedure: The β-secretase enzyme used in the TR-FRET is prepared as follows:
as §1, §2

T1 sequence (P56817 22-460): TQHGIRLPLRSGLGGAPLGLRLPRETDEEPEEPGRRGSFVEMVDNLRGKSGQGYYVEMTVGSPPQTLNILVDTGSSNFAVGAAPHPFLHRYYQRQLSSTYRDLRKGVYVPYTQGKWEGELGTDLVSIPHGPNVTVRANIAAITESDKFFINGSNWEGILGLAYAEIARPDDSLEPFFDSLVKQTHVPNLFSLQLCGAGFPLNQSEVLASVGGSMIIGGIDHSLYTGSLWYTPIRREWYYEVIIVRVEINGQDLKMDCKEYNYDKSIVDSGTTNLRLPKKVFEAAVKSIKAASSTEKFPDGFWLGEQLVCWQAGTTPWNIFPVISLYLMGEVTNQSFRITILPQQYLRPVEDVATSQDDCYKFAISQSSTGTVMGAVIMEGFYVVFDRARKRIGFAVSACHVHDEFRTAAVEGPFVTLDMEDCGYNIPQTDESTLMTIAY

| IC50 [1] | IC50 ([2]; Homo sapiens) | IC50 [2] | IC50 [3] | SMILES |
| --- | --- | --- | --- | --- |
| 3.7 nM |  | 0.9 nM |  | CO[C@H]1CC[C@]2(CC1)Cc1ccc(OCC3CC3)cc1[C@@]21N=C(C)C(N)=N1 (single isomer, unassigned; isomer 1) [4, isomer 1] |
| 7.4 nM | 1.6 nM |  |  | CO[C@H]1CC[C@]2(CC1)Cc1ccc(OCC3CC3)cc1C21N=C(C)C(N)=N1 (stereo partly drawn) [Example 3, (1r,4r)-6′-(Cyclopropylmethoxy)-4-methoxy-5″-methyl-3′H-dispiro[cyclohexane-1,2′-indene-1′,2″-imidazol]-4″-amine] |
|  |  |  | > 5000 nM | CO[C@H]1CC[C@]2(CC1)Cc1ccc(OCC3CC3)cc1[C@]21N=C(C)C(N)=N1 (single isomer, unassigned; isomer 2) [4, isomer 2] |

Continued, molecule first:

| SMILES | IC50 [1] | IC50 ([2]; Homo sapiens) | IC50 [2] | IC50 [3] |
| --- | --- | --- | --- | --- |
| CO[C@H]1CC[C@]2(CC1)Cc1ccc(OCCC3CC3)cc1C21N=C(C)C(N)=N1 (stereo partly drawn) [Example 8, (1r,4r)-6′-(2-Cyclopropylethoxy)-4-methoxy-5″-methyl-3′H-dispiro[cyclohexane-1,2′-indene-1′,2″-imidazol]-4″-amine] | 3.7 nM | 0.8 nM |  |  |
| CO[C@H]1CC[C@]2(CC1)Cc1ccc(OCC3(C)CC3)cc1C21N=C(C)C(N)=N1 (stereo partly drawn) [Example 1, (1r,4r)-4-Methoxy-5″-methyl-6′-[(1-methylcyclopropyl)methoxy]-3′H-dispiro[cyclohexane-1,2′-indene-1′,2″-imidazol]-4″-amine] | 18 nM | 2.8 nM |  |  |
| CO[C@H]1CC[C@]2(CC1)Cc1ccc(OCC3CC3(F)F)cc1C21N=C(C)C(N)=N1 (stereo partly drawn) [Example 5, (1r,4r)-6′-[(2,2-Difluorocyclopropyl)methoxy]-4-methoxy-5″-methyl-3′H-dispiro[cyclohexane-1,2′-indene-1′,2″-imidazol]-4″-amine] | 13 nM | 2.3 nM |  |  |
| CO[C@H]1CC[C@]2(CC1)Cc1ccc(OCC3CCC3)cc1C21N=C(C)C(N)=N1 (stereo partly drawn) [Example 6, (1r,4r)-6′-(Cyclobutylmethoxy)-4-methoxy-5″-methyl-3′H-dispiro[cyclohexane-1,2′-indene-1′,2″-imidazol]-4″-amine] |  | 1.5 nM |  |  |
| CO[C@H]1CC[C@]2(CC1)Cc1ccc(OCC3CCC3)cc1[C@@]21N=C(C)C(N)=N1 (single isomer, unassigned; isomer 1) [7, isomer 1] |  |  | 1.3 nM |  |
| CO[C@H]1CC[C@]2(CC1)Cc1ccc(OCC3CC(F)(F)C3)cc1C21N=C(C)C(N)=N1 (stereo partly drawn) [Example 2, (1r,4r)-6′-[(3,3-Difluorocyclobutyl)methoxy]-4-methoxy-5″-methyl-3′H-dispiro[cyclohexane-1,2′-indene-1′,2″-imidazol]-4″-amine] |  | 8.4 nM |  | 50 nM |
